Read-outs that look alike come from different tables or passages of the source.
Test system: human Ewing's sarcoma SK-ES-1
Assay type: in vivo
Parameters: Tumor volume changes from baseline: Median (nMad): unit not given here
Protocol: This efficacy may be quantified, for example, as changes in tumor volume for each treated (T) and control (C) group, which are calculated for each animal and each day by subtracting the tumor volume on the day of first treatment (staging day) from the tumor volume on the specified observation day. This allows calculating the tumor growth inhibition: ΔT/ΔC=(median delta T/median delta C)×100. Individual tumor volume changes from baseline are thereafter analyzed by a non-parametric two-way ANOVA-TYPE (with factors: group and repeated days) followed by a post-hoc contrasts analysis, with Bonferroni-Holm adjustment for multiplicity, comparing all treated groups to the control group. […] A probability less than 5% (p<0.05) was considered as significant.
Based on the National Cancer Institute (NCl) standards, a ΔT/ΔC≦40% is the minimal level required to declare activity.
The tumor doubling time (in days; Td) was estimated from the plot of the log linear growth of the control group tumors in exponential growth (100 to 1000 mm^3 range) [T. H. Corbett et al., Cancer, 40: 2660-2680 (1977); F. M. Schabel et al., Cancer Drug Development, Part B, Methods in Cancer Research, 17: 3-51, New York, Academic Press Inc. (1979)].
This efficacy may also be quantified by the number of tumor regressions observed after therapy. Individual mice reporting a tumor volume ≦50% of the Day 0 measurement for two consecutive measurements over a seven day period were considered partial responders (PR). Individual mice lacking palpable tumors (<4×4 mm^2 for two consecutive measurements over a seven day period) were classified as complete responders (CR); a CR that persisted until study completion was considered a tumor-free survivor (TFS).
The efficacy of cabazitaxel in comparison with docetaxel on pediatric solid tumors was determined experimentally in the following manner:
The animals subjected to the experiment are subcutaneously grafted unilaterally with approximately 30 mg of a tumor fragment on day 0. The animals are implanted with a human tumor xenografted in immunocompromized mice. Several days post tumor implantation, mice are randomized according to their body weight to the different groups of treatments and controls. The animals are observed every day. The different animal groups are weighed daily during treatment until the maximum weight loss is reached and subsequent full weight recovery has occurred. The groups are then weighed once or twice a week until the end of the trial.
The tumors are measured 1 to 5 times a week, depending on the tumor doubling time, until the tumor reaches approximately 1,000 mm^3, or until the animal dies (if this occurs before the tumor reaches 1,000 mm^3). The animals are necropsied immediately after euthanasia or death.
The selected tumor model was a human Ewing's sarcoma SK-ES-1, xenografted in SCID mice [Fogh J. New York: Plenum Press, 1975].
Cabazitaxel and docetaxel were weighed for each treatment and dissolved in ethanol. Treatment solutions were prepared first by mixing 1 volume of ethanolic stock solution and 1 volume of polysorbate 80, then by adding 18 volumes of glucose 5% in water.
The Td in days was estimated from the plot of the log linear growth of the control group tumors in exponential growth (100 to 1,000 mm^3 range) and the number of tumor regressions observed after therapy.
The following end points have been used: • Toxicity was declared at dosages inducing ≧20% body weight loss or ≧10% drug death; • Relative tumor growth inhibition was determined on day 22 post tumor implantation when the median tumor size in the control group was 456 mm^3; • Antitumor efficacy was determined by calculating the ΔT/ΔC value in percent, according to the above-mentioned formula; • Tumor regressions (as explained above); • Statistical analysis performed (as explained above).

[1] = 3.5 mg/kg per injection (total 7.0) IV days 15; 19
[2] = 3.5 mg/kg per injection (total 7.0) IV days 15; 19; listed as DOCETAXEL
[3] = 3.5 mg/kg per injection (total 7.0) IV days 15; 19; listed as docetaxel
[4] = 5.6 mg/kg per injection (total 11.2) IV days 15; 19
[5] = 5.6 mg/kg per injection (total 11.2) IV days 15; 19; listed as DOCETAXEL
[6] = 9.0 mg/kg per injection (total 18) IV days 15; 19
[7] = 9.0 mg/kg per injection (total 18) IV days 15; 19; listed as DOCETAXEL
[8] = 14.5 mg/kg per injection (total 29) IV days 15; 19
[9] = 14.5 mg/kg per injection (total 29) IV days 15; 19; listed as DOCETAXEL
[10] = 14.5 mg/kg per injection (total 29) IV days 15; 19; listed as docetaxel

With `CC(=O)O[C@@]12CO[C@@H]1C[C@H](O)[C@@]1(C)C(=O)[C@H](O)C3=C(C)[C@@H](OC(=O)[C@H](O)[C@@H](NC(=O)OC(C)(C)C)c4ccccc4)C[C@@](O)([C@@H](OC(=O)c4ccccc4)[C@H]21)C3(C)C` [Docetaxel, docetaxel] the “Average body weight change in % per mouse at nadir” value [1] was −2.1%, the Drug death [1] was 0/7 and the “Regressions Complete” value [1] was 0/7. For the same molecule, the “Regressions Partial” value [1] was 0/7, the “Tumor free survivors at day 120” value [1] was 0/7 and the day of nadir [1] was 16 days. For the same molecule, the Biological interpretation [2] was “Inactive”, the “ΔT/ΔC in % (day 22)” value [2] was 72% and the Biological interpretation [3] was “inactive”. The “ΔT/ΔC in % (day 22)” value [3] was greater than 40%, the “Tumor volume changes from baseline: Median (nMad)” value (from here on “Tumor volume changes from baseline”) (3.5 mg/kg, day 19) was 52 and the “Tumor volume changes from baseline” value (3.5 mg/kg, day 22) was 136. For the same molecule, the “Tumor volume changes from baseline” value (3.5 mg/kg, day 25) was 712, the “Tumor volume changes from baseline” value (3.5 mg/kg, day 28) was 900 and the “Tumor volume changes from baseline” value (3.5 mg/kg; day 19) was 52 (89). The “Tumor volume changes from baseline” value (3.5 mg/kg; day 22) was 136, the “Tumor volume changes from baseline” value (3.5 mg/kg; day 25) was 712 (29.7) and the “Tumor volume changes from baseline” value (3.5 mg/kg; day 28) was 900. The “Average body weight change in % per mouse at nadir” value [4] was −5.4%, the Drug death [4] was 0/7 and the “Regressions Complete” value [4] was 0/7. For the same molecule, the “Regressions Partial” value [4] was 1/7, the “Tumor free survivors at day 120” value [4] was 0/7 and the day of nadir [4] was 16 days. For the same molecule, the Biological interpretation [5] was “Highly Active”, the “ΔT/ΔC in % (day 22)” value [5] was less than 0% and the Biological interpretation (5.6 mg/kg per injection (total 11.2) IV days 15; 19; listed as docetaxel) was “highly active”. The “Tumor volume changes from baseline” value (5.6 mg/kg, day 19) was 0, the “Tumor volume changes from baseline” value (5.6 mg/kg, day 22) was −36 and the “Tumor volume changes from baseline” value (5.6 mg/kg, day 25) was 168. For the same molecule, the “Tumor volume changes from baseline” value (5.6 mg/kg, day 28) was 342, the “Tumor volume changes from baseline” value (5.6 mg/kg; day 19) was 0 (106.7) and the “Tumor volume changes from baseline” value (5.6 mg/kg; day 22) was −36 (60.8). For the same molecule, the “Tumor volume changes from baseline” value (5.6 mg/kg; day 25) was 168 (80.1), the “Tumor volume changes from baseline” value (5.6 mg/kg; day 28) was 342 (89) and the “Tumor volume changes from baseline” value (5.6 mg/kg; day 32) was 480. The “Tumor volume changes from baseline” value (5.6 mg/kg; day 35) was 2005, the “Average body weight change in % per mouse at nadir” value [6] was −6.6% and the Drug death [6] was 0/7. For the same molecule, the “Regressions Complete” value [6] was 0/7, the “Regressions Partial” value [6] was 6/7 and the “Tumor free survivors at day 120” value [6] was 0/7. For the same molecule, the day of nadir [6] was 23 days, the Biological interpretation [7] was “Highly Active” and the “ΔT/ΔC in % (day 22)” value [7] was less than 0%. The Biological interpretation (9.0 mg/kg per injection (total 18) IV days 15; 19; listed as docetaxel) was “highly active”, the “Tumor volume changes from baseline” value (9 mg/kg, day 19) was 0 and the “Tumor volume changes from baseline” value (9 mg/kg, day 22) was −101. For the same molecule, the “Tumor volume changes from baseline” value (9 mg/kg, day 25) was −126, the “Tumor volume changes from baseline” value (9 mg/kg, day 28) was −126 and the “Tumor volume changes from baseline” value (9 mg/kg; day 19) was 0 (37.1). The “Tumor volume changes from baseline” value (9 mg/kg; day 22) was −101, the “Tumor volume changes from baseline” value (9 mg/kg; day 25) was −126 and the “Tumor volume changes from baseline” value (9 mg/kg; day 28) was −126 (46). The “Tumor volume changes from baseline” value (9 mg/kg; day 32) was −49, the “Tumor volume changes from baseline” value (9 mg/kg; day 35) was 201 and the “Average body weight change in % per mouse at nadir” value [8] was −10.5%. The Drug death [8] was 0/7, the “Regressions Complete” value [8] was 3/7 and the “Regressions Partial” value [8] was 7/7. The day of nadir [8] was 27 days, the Biological interpretation [9] was “Highly Active” and the “Tumor free survivors at day 120” value [9] was 0/7. The “ΔT/ΔC in % (day 22)” value [9] was less than 0%, the Biological interpretation [10] was “highly active” and the “Tumor free survivors at day 120” value [10] was “no TFS”. For the same molecule, the “Tumor volume changes from baseline” value (14.5 mg/kg, day 19) was −18, the “Tumor volume changes from baseline” value (14.5 mg/kg, day 22) was −156 and the “Tumor volume changes from baseline” value (14.5 mg/kg, day 25) was −173. The “Tumor volume changes from baseline” value (14.5 mg/kg, day 28) was −164, the “Tumor volume changes from baseline” value (14.5 mg/kg; day 19) was −18 (77.1) and the “Tumor volume changes from baseline” value (14.5 mg/kg; day 22) was −156. The “Tumor volume changes from baseline” value (14.5 mg/kg; day 25) was −173, the “Tumor volume changes from baseline” value (14.5 mg/kg; day 28) was −164 and the “Tumor volume changes from baseline” value (14.5 mg/kg; day 32) was −162. For the same molecule, the “Tumor volume changes from baseline” value (14.5 mg/kg; day 35) was −162, the “Tumor volume changes from baseline” value (14.5 mg/kg; day 39) was 290 and the “Tumor volume changes from baseline” value (14.5 mg/kg; day 41) was 274. For the same molecule, the “Tumor volume changes from baseline” value (14.5 mg/kg; day 43) was 427.5 and the “Tumor volume changes from baseline” value (14.5 mg/kg; day 45) was 574.

From US20140350273A1, “PEDIATRIC USES OF CABAZITAXEL” (AVENTIS PHARMA S.A., priority 2012, published 2014)
